# Source: ChEMBL document CHEMBL1151440, “Safety and pharmacokinetics of GSK364735, a human immunodeficiency virus type 1 integrase inhibitor, following single and repeated administration in healthy adult subjects” (Antimicrob Agents Chemother, 2007)
# Legend:
# [1] = Cmax in fasted human at 400 mg administered as single dose; format: ADME, organism-based; design: dose 400 mg; details: in vivo
# [2] = tested on: Canis familiaris; experiment: Clearance in iv dosed dog assessed as liver blood flow; format: ADME, organism-based, Canis lupus familiaris; details: in vivo
# [3] = Terminal elimination half life in fasted human at 200 mg administered as single dose; format: ADME, organism-based; details: in vivo, read-out: beta t1/2 (converted)
# [4] = Cmax in human at 50 mg administered with fat meal every 12 hrs for 8 days measured on day 8; format: ADME, organism-based; design: dose 50 mg; details: in vivo
# [5] = Terminal elimination half life in iv dosed dog; format: ADME, organism-based, Canis lupus familiaris; details: in vivo, read-out: beta t1/2 (converted)
# [6] = Cmax in human at 400 mg administered with fat meal daily for 8 days measured on day 8; format: ADME, organism-based; design: dose 400 mg; details: in vivo
# [7] = Apparent oral clearance in fasted human at 100 mg administered as single dose; format: ADME, organism-based; details: in vivo
# [8] = tested on: Homo sapiens; experiment: Toxicity in human assessed as adverse effect at 50 to 200 mg administered as single dose; format: organism-based; details: in vivo
# [9] = Apparent oral clearance in human at 50 mg administered with fat meal every 12 hrs for 8 days measured on day 1; format: ADME, organism-based; details: in vivo
# [10] = Plasma concentration in human at 400 mg administered with fat meal every 12 hrs for 8 days measured on day 1 after 12 hrs of first dose; format: ADME, organism-based
# [11] = tested on: Homo sapiens; experiment: Toxicity in human assessed as changes in hematology at 50 to 200 mg administered as single dose; format: organism-based; details: in vivo
# [12] = AUC (0 to 8 hrs) in human at 200 mg administered with fat meal every 8 hrs for 8 days measured on day 8; format: ADME, organism-based; design: time < 8 hr, dose 200 mg; details: plasma
# [13] = tested on: Homo sapiens; experiment: Toxicity in human assessed as dizziness at 100 mg administered every 12 hrs for 8 days; format: organism-based; details: in vivo
# [14] = Apparent oral clearance in human at 100 mg administered with fat meal every 12 hrs for 8 days measured on day 8; format: ADME, organism-based; details: in vivo
# [15] = Apparent oral clearance in human at 200 mg administered with fat meal every 8 hrs for 8 days measured on day 1; format: ADME, organism-based; details: in vivo
# [16] = Apparent oral clearance in human at 50 mg administered with fat meal every 12 hrs for 8 days measured on day 8; format: ADME, organism-based; details: in vivo
# [17] = Cmax in human at 200 mg administered with fat meal as single dose; format: ADME, organism-based; design: dose 200 mg; details: in vivo
# [18] = Tmax in human at 200 mg administered with fat meal every 12 hrs for 8 days measured on day 8; format: ADME, organism-based; details: in vivo
# [19] = Oral bioavailability in dog; format: ADME, organism-based, Canis lupus familiaris; details: in vivo
# [20] = AUC (0 to infinity) in human at 400 mg administered with fat meal as single dose; format: ADME, organism-based; design: dose 400 mg, time infinity; details: plasma
# [21] = tested on: Homo sapiens; experiment: Toxicity in human assessed as dizziness at 50 mg administered every 12 hrs for 8 days; format: organism-based; details: in vivo
# [22] = Terminal elimination half life in human at 200 mg administered with fat meal every 12 hrs for 8 days measured on day 1; format: ADME, organism-based; details: in vivo, read-out: beta t1/2 (converted)
# [23] = Cmax in fasted human at 200 mg administered as single dose; format: ADME, organism-based; design: dose 200 mg; details: in vivo
# [24] = Tmax in human at 200 mg administered with fat meal every 12 hrs for 8 days measured on day 1; format: ADME, organism-based; details: in vivo
# [25] = Cmax in human at 400 mg administered with fat meal as single dose; format: ADME, organism-based; design: dose 400 mg; details: in vivo
# [26] = tested on: Homo sapiens; experiment: Toxicity in human assessed as headache at 50 to 200 mg administered as single dose; format: organism-based; details: in vivo
# [27] = Terminal elimination half life in human at 400 mg administered with fat meal daily for 8 days measured on day 8; format: ADME, organism-based; details: in vivo, read-out: beta t1/2 (converted)
# [28] = Cmax in fasted human at 100 mg administered as single dose; format: ADME, organism-based; design: dose 100 mg; details: in vivo
# [29] = Apparent oral clearance in human at 200 mg administered with fat meal every 12 hrs for 8 days measured on day 1; format: ADME, organism-based; details: in vivo
# [30] = Apparent oral clearance in fasted human at 200 mg administered as single dose; format: ADME, organism-based; details: in vivo
# [31] = Cmax in fasted human at 50 mg administered as single dose; format: ADME, organism-based; design: dose 50 mg; details: in vivo
# [32] = tested on: Homo sapiens; experiment: Toxicity in human assessed as changes in continuous telemetry monitoring at 50 to 200 mg administered as single dose; format: organism-based; details: in vivo
# [33] = Plasma concentration in human at 200 mg administered with fat meal every 8 hrs for 8 days measured on day 1 after 12 hrs of first dose; format: ADME, organism-based
# [34] = species: Homo sapiens; experiment: Toxicity in human assessed as adverse effect at 400 mg daily for 8 days; format: organism-based; details: in vivo, 192 h
# [35] = tested on: Rhesus monkey; experiment: Clearance in iv dosed monkey assessed as liver blood flow; format: ADME, organism-based, Macaca mulatta; details: in vivo
# [36] = Tmax in fasted human at 50 mg administered as single dose; format: ADME, organism-based; details: in vivo
# [37] = Oral bioavailability rat; format: ADME, organism-based; details: in vivo
# [38] = Terminal elimination half life in human at 100 mg administered with fat meal every 12 hrs for 8 days measured on day 1; format: ADME, organism-based; details: in vivo, read-out: beta t1/2 (converted)
# [39] = tested on: Homo sapiens; experiment: Toxicity in human assessed as changes in continuous telemetry monitoring at 50 to 400 mg after sequential repeated administration for 8 days; format: organism-based; details: in vivo, 192 h
# [40] = tested on: Homo sapiens; experiment: Toxicity in human assessed as changes in vital signs at 50 to 200 mg administered as single dose; format: organism-based; details: in vivo
# [41] = Terminal elimination half life in human at 200 mg administered with fat meal as single dose; format: ADME, organism-based; details: in vivo, read-out: beta t1/2 (converted)
# [42] = AUC (0 to 24 hrs) in human at 400 mg administered with fat meal daily for 8 days measured on day 8; format: ADME, organism-based; design: dose 400 mg, time < 24 hr; details: plasma
# [43] = Plasma concentration in human at 50 mg administered with fat meal every 12 hrs for 8 days measured on day 1 after 12 hrs of first dose; format: ADME, organism-based
# [44] = Plasma concentration in human at 200 mg administered with fat meal every 12 hrs for 8 days measured on day 1 after 12 hrs of first dose; format: ADME, organism-based
# [45] = tested on: Rattus norvegicus; experiment: Clearance in iv dosed rat assessed as liver blood flow; format: ADME, organism-based; details: in vivo
# [46] = AUC (0 to infinity) in fasted human at 400 mg administered as single dose; format: ADME, organism-based; design: dose 400 mg, time infinity; details: plasma
# [47] = species: Homo sapiens; experiment: Toxicity in human assessed as dizziness at 400 mg daily for 8 days; format: organism-based; details: in vivo, 192 h
# [48] = tested on: Homo sapiens; experiment: Toxicity in human assessed as diarrhea at 50 to 200 mg administered as single dose; format: organism-based; details: in vivo
# [49] = Cmax in human at 200 mg administered with fat meal every 8 hrs for 8 days measured on day 8; format: ADME, organism-based; design: dose 200 mg; details: in vivo
# [50] = Tmax in human at 50 mg administered with fat meal every 12 hrs for 8 days measured on day 1; format: ADME, organism-based; details: in vivo
# [51] = AUC (0 to infinity) in human at 200 mg administered with fat meal every 8 hrs for 8 days measured on day 1; format: ADME, organism-based; design: dose 200 mg, time infinity; details: plasma
# [52] = Tmax in human at 100 mg administered with fat meal every 12 hrs for 8 days measured on day 8; format: ADME, organism-based; details: in vivo
# [53] = Terminal elimination half life in fasted human at 50 mg administered as single dose; format: ADME, organism-based; details: in vivo, read-out: beta t1/2 (converted)
# [54] = Apparent oral clearance in human at 400 mg administered with fat meal daily for 8 days measured on day 1; format: ADME, organism-based; details: in vivo
# [55] = Terminal elimination half life in fasted human at 100 mg administered as single dose; format: ADME, organism-based; details: in vivo, read-out: beta t1/2 (converted)
# [56] = Tmax in human at 100 mg administered with fat meal every 12 hrs for 8 days measured on day 1; format: ADME, organism-based; details: in vivo
# [57] = Tmax in human at 200 mg administered with fat meal every 8 hrs for 8 days measured on day 8; format: ADME, organism-based; details: in vivo
# [58] = Tmax in human at 50 mg administered with fat meal every 12 hrs for 8 days measured on day 8; format: ADME, organism-based; details: in vivo
# [59] = tested on: Homo sapiens; experiment: Toxicity in human assessed as adverse effect at 100 mg administered every 12 hrs for 8 days; format: organism-based; details: in vivo
# [60] = tested on: Homo sapiens; experiment: Toxicity in human assessed as increase in LDL cholesterol level at 50 to 400 mg after sequential repeated dose administration for 8 days relative to basal level; format: organism-based; details: in vivo, 192 h
smiles,measurement,setting,value
Cn1c(=O)c(C(=O)NCCO)c(O)c2ncc(Cc3ccc(F)cc3)cc21 [GSK-364735],Cmax,[1],1300 ng/mL
same,QH,[2],27.8%
same,half-life,[3],5.3 h
same,Cmax,[4],1400 ng/mL
same,half-life,[5],1.5 h
same,Cmax,[6],2100 ng/mL
same,CL/F,[7],317 mL/min
same,Activity,[8],4%
same,CL/F,[9],217 mL/min
same,concentration at 12 h,[10],340 ng/mL
same,Activity,[11],Non-toxic
same,AUC at 8 h,[12],4900 ng·h/mL
same,Activity,[13],13%
same,CL/F,[14],138 mL/min
same,CL/F,[15],567 mL/min
same,CL/F,[16],150 mL/min
same,Cmax,[17],1300 ng/mL
same,Tmax,[18],3 h
same,bioavailability,[19],6%
same,AUC(0-inf),[20],8500 ng·h/mL
same,Activity,[21],Non-toxic
same,half-life,[22],3.9 h
same,Cmax,[23],1100 ng/mL
same,Tmax,[24],4 h
same,Cmax,[25],840 ng/mL
same,Activity,[26],4%
same,half-life,[27],4.4 h
same,Cmax,[28],1000 ng/mL
same,CL/F,[29],367 mL/min
same,CL/F,[30],600 mL/min
same,Cmax,[31],760 ng/mL
same,Activity,[32],Non-toxic
same,concentration at 12 h,[33],130 ng/mL
same,Activity,[34],Non-toxic
same,QH,[35],4.6%
same,Tmax,[36],1.5 h
same,bioavailability,[37],6%
same,half-life,[38],3.1 h
same,Activity,[39],Non-toxic
same,Activity,[40],Non-toxic
same,half-life,[41],6.5 h
same,AUC at 24 h,[42],12000 ng·h/mL
same,concentration at 12 h,[43],93 ng/mL
same,concentration at 12 h,[44],230 ng/mL
same,QH,[45],5.8%
same,AUC(0-inf),[46],6600 ng·h/mL
same,Activity,[47],Non-toxic
same,Activity,[48],4%
same,Cmax,[49],970 ng/mL
same,Tmax,[50],5.5 h
same,AUC(0-inf),[51],5900 ng·h/mL
same,Tmax,[52],3.75 h
same,half-life,[53],3.1 h
same,CL/F,[54],433 mL/min
same,half-life,[55],2.9 h
same,Tmax,[56],3.25 h
same,Tmax,[57],4 h
same,Tmax,[58],3.75 h
same,Activity,[59],38%
same,Activity,[60],0.5 mg/dL
